Where two headings read alike, the source gives them in different places.
Experiments:
human NK3 receptor [1] = target: T1, human NK3 receptor (Homo sapiens, UniProt P29371); assay: NK3 receptor binding assay (SPA-based competition binding with 125I-NKB, membranes of BHK cells)
T1 construct: expressed in transfected cells; membranes prepared from them
T1 sequence (P29371 1-465): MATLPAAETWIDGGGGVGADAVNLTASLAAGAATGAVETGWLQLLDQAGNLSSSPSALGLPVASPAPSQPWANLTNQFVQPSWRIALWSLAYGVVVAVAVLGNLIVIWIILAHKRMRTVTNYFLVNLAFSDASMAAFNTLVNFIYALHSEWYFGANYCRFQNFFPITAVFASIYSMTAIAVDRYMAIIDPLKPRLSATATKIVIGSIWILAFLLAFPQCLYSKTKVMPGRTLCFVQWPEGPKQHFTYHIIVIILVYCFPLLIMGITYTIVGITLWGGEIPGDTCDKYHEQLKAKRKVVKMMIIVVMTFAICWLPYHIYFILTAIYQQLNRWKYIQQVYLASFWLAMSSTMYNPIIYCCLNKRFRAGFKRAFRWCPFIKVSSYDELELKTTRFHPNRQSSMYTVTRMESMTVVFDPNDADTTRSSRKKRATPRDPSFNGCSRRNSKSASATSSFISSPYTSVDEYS
Protocol: Membranepreparation: BHK cells stably expressing the human NK3 receptor were seeded in harvesting plates in Dulbeccos MEM containing GlutaMax (862 mg/l), 1 mM sodium pyruvate, 10% fetal calf serum, 1% Pen/Strep, I mg/ml G418 and were grown at 34 °C in a humidified atmosphere containing 10% CO2. To increase receptor expression, 10 µM trichotatin A was added to the media 24 hours before harvest of the cells at a confluency of app 90%. Prior to the harvesting, the cells were washed twice with PBS without Mg^2+ og Ca^2+ and subsequently scrapped of in 10 ml PBS pr harvesting plate. The cells suspension were centrifuged at 1500xG in three minutes before resuspension in 15 mM Tris-HCl pH 7,5 buffer containing 2 mM MgCl2; 0,3 mM EDTA and 1 mM EGTA (buffer A). The cell suspention was homogenised and subsequently centrifuged at 40000xG in 30 minutes. The membrane-pellet was resuspended in buffer A containing 250 mM sucrose, alliquoted and stored at - 80°C.
Affinity assay description: The assay was performed as a SPA-based competition-binding assay in a 50 mM Tris pH 7.4 assay buffer containing 120 mM NaCl, 3 mM MnCl2, 40 µg/ml bacitracin, 2 µg/ml Chymostatin, 1 µg/ml Phosphoramidon and 4 µg/ml Leupeptin. App 0.02 nM ^125I-NKB was mixed with test compounds before addition of 4 µg of the homogenised NK3 membrane preparation and 0,025 mg SPA beads in a total volume of 60 µl. The assay plate was subsequently under agitation incubated for 90 min at RT. The plate was centrifugated 10 minutes at 500xG and counted in a topcounter 5 minuttes pr well.
The non-specific binding constituted app 5 % of the total binding.
Data points were expressed in percent of the specific binding of ^125I-NKB and the IC50 values (concentration causing 50 percent inhibition of ^125I-NKB specific binding) were determined by non-linear regression analysis using a sigmoidal variable slope curve fitting. The dissociation constant (Ki) were calculated from the Cheng Prusoff equation (Ki = IG50/(1+(L/KD))), where the concentration of free radioligand L is approximated to the concentration of added ^125I-NKB in the assay (app 0,02 nM).
The KD of ^125I-NKB was determined to be 0,7 nM from three independent saturation assays each performed with duplicate determinations. Bmax was app 2 pmol/mg.

human NK3 receptor [2] = target: T1, human NK3 receptor; assay: NK3 receptor efficacy and potency assay (FLIPR Calcium 4 assay, BHK cells; agonist and antagonist mode versus NKB); assay type: cell-based; settings: read-out: Potency cIC50
Protocol: BHK cells stably expressing the human NK3 receptor were seeded in 100 µl media in black walled clear-base 96-wells plates (Costar) aiming at a confluency of 95-100% at the day of assay. The assay was performed according to the FLIPR Calcium 4 Assay kit (Molecular Devices). At the day of the assay, the media was removed and the cells were washed once with the HBSS buffer (Hanks BSS buffer, pH 7,4 containing 20 mM Hepes) before 100 µl of a solution of the calcium assay reagent dissolved in the HBSS buffer containing 2,5 mM probinicid was added to the cells. The plates were incubated for 60 min at 34°C, 10% CO2 before use in the FLIPR for examination of fluorescence.
For efficacy and potency evaluation of compounds, these were diluted in HBSS buffer prior to test. For test of agonist activity, 25 µl of the diluted compound solution was added and the plate was analyzed for 5 minutes in the FLIPR. […] The plates were subsequently analyzed for 5 minutes before the assay was terminated. The maximal increase in fluorescence over background following each ligand addition was determined.

[3] = table of Example 10, affinity obtained as described in Example 9, read-out: Affinity Ki

SMILES	Ki (human NK3 receptor [1]; [3])	IC50 (human NK3 receptor [2])	Ki (human NK3 receptor [1]; Ki for the NK3 receptor, table of Example 9, 125I-NKB competition binding, read-out: Ki)
O=C(NC(c1cccc(F)c1)C1CC1)c1c(CN2CCN(CCN3CCCCC3)CC2)n(-c2ccccc2)c(=O)c2ccccc12 (stereo not drawn) [Example 2hu, 1-Oxo-2-phenyl-3-[4-(2-piperidin-1-yl-ethyl)-piperazin-1-ylmethyl]-1,2-dihydro-isoquinoline-4-carboxylic acid [cyclopropyl-(3-fluoro-phenyl)-methyl]-amide]	6.2 nM	29 nM	
O=C(NC(c1cccc(F)c1)C1CC1)c1c(CN2CCC(O)(c3ccncc3)CC2)n(-c2ccccc2)c(=O)c2ccccc12 (stereo not drawn) [Example 2hx, 3-(4-Hydroxy-3,4,5,6-tetrahydro-2H-[4,4']bipyridinyl-1-ylmethyl)-1-oxo-2-phenyl-1,2-dihydro-isoquinoline-4-carboxylic acid [cyclopropyl-(3-fluoro-phenyl)-methyl]-amide]	9.3 nM	68 nM	
O=C(NC(c1cccc(F)c1)C1CC1)c1c(CN2CCN(CCN3CCOCC3)CC2)n(-c2ccccc2)c(=O)c2ccccc12 (stereo not drawn) [Example 2hs]	7.5 nM	21 nM	5.3 nM
CC[C@H](NC(=O)c1c(CN2CCC2)n(-c2ccccc2)c(=O)c2ccccc12)c1ccccc1 [Example 2ey, 3-Azetidin-1-ylmethyl-1-oxo-2-phenyl-1,2-dihydro-isoquinoline-4-carboxylic acid ((S)-1-phenyl-propyl)-amide]	240 nM	480 nM	
CC[C@H](NC(=O)c1c(CN2CCNC(=O)C2)n(-c2ccccc2)c(=O)c2ccccc12)c1ccccc1 [Example 2df, 1-Oxo-3-(3-oxo-piperazin-1-ylmethyl)-2-phenyl-1,2-dihydro-isoquinoline-4-carboxylic acid ((S)-1-phenyl-propyl)-amide]	340 nM	450 nM	
CC[C@H](NC(=O)c1c(C)n(-c2ccccc2)c(=O)c2c(Cl)cccc12)c1ccccc1 [Example 1i, 8-Chloro-3-methyl-1-oxo-2-phenyl-1,2-dihydro-isoquinoline-4-carboxylic acid ((S)-1-phenyl-propyl)-amide]	41 nM	130 nM	
CC[C@H](NC(=O)c1c(CN2CCN(C(C)(C)C)CC2)n(-c2ccccc2)c(=O)c2c(Cl)cccc12)c1ccccc1 [Example 2ko, 3-(4-tert-Butyl-piperazin-1-ylmethyl)-8-chloro-1-oxo-2-phenyl-1,2-dihydro-isoquinoline-4-carboxylic acid ((S)-1-phenyl-propyl)-amide]	11 nM	5.6 nM	
Cc1c(C(=O)N[C@H](c2ccccc2)C2CC2)c2cccc(F)c2c(=O)n1-c1ccccc1 [Example 6c, 8-Fluoro-3-methyl-1-oxo-2-phenyl-1,2-dihydro-isoquinoline-4-carboxylic acid ((S)-cyclopropyl-phenyl-methyl)-amide]	23 nM	24 nM	
CC[C@H](NC(=O)c1c(CN2CCCCCC2)n(-c2ccccc2)c(=O)c2ccccc12)c1ccccc1 [Example 2ah, 3-Azepan-1-ylmethyl-1-oxo-2-phenyl-1,2-dihydro-isoquinoline-4-carboxylic acid ((S)-1-phenyl-propyl)-amide]	290 nM	360 nM	
O=C(NC(c1cccc(F)c1)C1CC1)c1c(CN2CCN(CCN3CCCC3)CC2)n(-c2ccccc2)c(=O)c2ccccc12 (stereo not drawn) [Example 2hv, 1-Oxo-2-phenyl-3-[4-(2-pyrrolidin-1-yl-ethyl)-piperazin-1-ylmethyl]-1,2-dihydro-isoquinolinc-4-carboxylic acid [cyclopropyl-(3-fluoro-phenyl)-methyl]-amide]	14 nM	35 nM	
O=C(N[C@H](c1cccc(F)c1)C1CC1)c1c(CN2CCCC2=O)n(-c2ccccc2)c(=O)c2c(Cl)cccc12 [Example 3d, 8-Chloro-1-oxo-3-(2-oxo-pyrrolidin-1-ylmethyl)-2-phenyl-1,2-dihydro-isoquinoline-4-carboxylic acid [(S)-cyclopropyl-(3-fluoro-phenyl)-methyl]-amide]	16 nM	46 nM	
CC[C@H](NC(=O)c1c(CN2CCC(O)(c3cccc(OC)c3)CC2)n(-c2cccc(F)c2)c(=O)c2ccccc12)c1ccccc1 [Example 2iy, 2-(3-Fluoro-phenyl)-3-[4-hydroxy-4-(3-methoxy-phenyl)-piperidin-1-ylmethyl]-1-oxo-1,2-dihydro-isoquinoline-4-carboxylic acid ((S)-1-phenyl-propyl)-amide]	17 nM	92 nM	
CC[C@H](NC(=O)c1c(CN2CCC3(CC2)OCCO3)n(-c2ccccc2)c(=O)c2ccccc12)c1ccccc1 [Example 2u, 3-(1,4-Dioxa-8-aza-spiro[4.5]dec-8-ylmethyl)-1-oxo-2-phenyl-1,2-dihydro-isoquinoline-4-carboxylic acid ((S)-1-phenyl-propyl)-amide]	90 nM	96 nM	
CC[C@H](NC(=O)c1c(CN2CCN(CCN3CCCC3)CC2)n(-c2ccccc2)c(=O)c2ccccc12)c1ccccc1 [Example 2bq, 1-Oxo-2-phenyl-3-[4-(2-pyrrolidin-1-yl-ethyl)-pipcrazin-1-ylmethyl]-1,2-dihydro-isoquinolinc-4-carboxylic acid ((S)-1-phenyl-propyl)-amide]	160 nM	220 nM	
CC[C@H](NC(=O)c1c(CN2CCN(c3ccc4ncccc4c3)CC2)n(-c2ccccc2)c(=O)c2ccccc12)c1ccccc1 [Example 2fm, 1-Oxo-2-phenyl-3-(4-quinolin-6-yl-piperazin-1-ylmethyl)-1,2-dihydro-isoquinoline-4-carboxylic acid ((S)-1-phenyl-propyl)-amide]	33 nM	140 nM	
CC[C@H](NC(=O)c1c(CN2CCC(CCN3CCOCC3)CC2)n(-c2ccccc2)c(=O)c2ccccc12)c1ccccc1 [Example 2cw, 3-[4-(2-Morpholin-4-yl-ethyl)-piperidin-1-ylmethyl]-1-oxo-2-phenyl-1,2-dihydro-isoquinoline-4-carboxylic acid ((S)-1-phenyl-propyl)-amide]	8.4 nM	45 nM	
CC[C@H](NC(=O)c1c(CN2CCCNCC2)n(-c2ccccc2)c(=O)c2c(Cl)cccc12)c1ccccc1 [Example 2kh, 8-Chloro-3-[1,4]diazepan-1-ylmethyl-1-oxo-2-phenyl-1,2-dihydro-isoquinoline-4-carboxylic acid ((S)-1-phenyl-propyl)-amide]	82 nM	120 nM	
O=C(NC(c1cccc(F)c1)C1CC1)c1c(CN2CCN(CCc3ccccc3)CC2)n(-c2ccccc2)c(=O)c2ccccc12 (stereo not drawn) [Example 2hq, 1-Oxo-3-(4-phenethyl-piperazin-1-ylmethyl)-2-phenyl-1,2-dihydro-isoquinoline-4-carboxylic acid [cyclopropyl-(3-fluoro-phenyl)-methyl]-amide]	10 nM	44 nM	
CC[C@H](NC(=O)c1c(CN2CC[C@H](O)C2)n(-c2ccccc2)c(=O)c2ccccc12)c1ccccc1 [Example 2es, 3-((S)-3-Hydroxy-pyrrolidin-1-ylmethyl)-1-oxo-2-phenyl-1,2-dihydro-isoquinoline-4-carboxylic acid ((S)-1-phenyl-propyl)-amide]	140 nM	240 nM	

— EP2150534B1, “ISOQUINOLINONE DERIVATIVES AS NK3 ANTAGONISTS” (H. Lundbeck A/S, priority 2007, dated 2008)
